{
  "source": "patent US9814758B2",
  "about": "“Inhibitors of apoptosis and uses thereof” (CENTRE NATIONAL DE LA RECHERCHE SCIENTIFIQUE-CNRS, priority 2010, dated 2017)",
  "target": "T1, His-tagged intracellular region of Fas receptor (Homo sapiens, UniProt P25445)",
  "T1 construct": "His-tagged intracellular region of Fas receptor [10 μg/ml]; purchased Sigma",
  "T1 sequence (P25445 191-335 limits assumed)": "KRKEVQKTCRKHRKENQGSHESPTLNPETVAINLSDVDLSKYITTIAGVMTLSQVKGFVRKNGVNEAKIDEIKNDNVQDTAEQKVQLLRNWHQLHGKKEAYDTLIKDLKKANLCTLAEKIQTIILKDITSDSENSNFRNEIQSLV",
  "experiment": "SPOT peptide array, enzyme-linked blot with His-tagged Fas",
  "assay_type": "binding",
  "details": "Fas 10 μg/ml; anti-His/anti-mouse-HRP",
  "experimental": "FIG. 1: Determination of the DAXX epitope by SPOT synthesis. (A) The amino acid sequence of DAXX was dissected in overlapping peptide arrays (pepscan; 15 mer peptides with a shift of 3 amino acids) and analyzed in enzyme-linked blot. […] Incubation conditions: His-tagged intracellular region of Fas receptor [10 μg/ml]; antibodies: anti-His-(mouse) (Sigma H1029; 1:6,000)/anti-mouse-HRP (Calbiochem 401207; 1:2,000), exposure time: 1 minute. (B) Alignment of the human DAXX sequence comprising the 16-mer KKSRKEKKQTGSGPLG (=DAXXp of SEQ ID NO: 5) with the DAXX sequences of other species (mouse, rat, dog (CANFA) and green monkey (CHLAE)).\nFIG. 2: Determination of the optimal length of the DAXX epitope (=DAXXp) by SPOT synthesis. (A) The DAXXp-211 and DAXXp-209 peptides (of SEQ ID NO: 2 and SEQ ID NO: 3, respectively) were successively shortened by one amino acid residue at the N-terminus, at the C-terminus and both at the N- and the C-termini, and analyzed using enzyme-linked blot. […] Incubation conditions: His-tagged intracellular region of Fas receptor [10 μg/ml]; antibodies: anti-His-(mouse) (Sigma H1029; 1:6,000)/anti-mouse-HRP (Calbiochem 401207; 1:2,000), exposure time: 1 minute. (B) Alignment of both peptide sequences DAXXp-211 and DAXXp-209; corresponding to the brightest spots, to determine the optimal DAXX peptide sequence.\nFIG. 8: Determination of FADDp15 and its anti-apoptotic effect in cardiomyocytes. (A) The protein sequences of FADD were dissected in overlapping peptide arrays (pepscan; 15 mer peptides with a shift of 3 amino acids) and analyzed using enzyme-linked blot. […] (B) The peptide sequence of FADDp-11 (=FADDp15=SEQ ID NO: 9) was successively shortened by one amino acid residue at the C-terminus, the N-terminus, or at both the C-terminus and the N-terminus, and analyzed using enzyme-linked blot. […] The shortest FADD epitope (a 9-mer with sequence KRKLERVQS (=FADDp=SEQ ID NO: 12)) corresponded to spot No. 24. Incubation conditions: His-tagged intracellular region of Fas receptor [10 μg/ml]; antibodies: anti-His-(mouse) (Sigma H1029; 1:6,000)/anti-mouse-HRP (Calbiochem 401207; 1:2,000), exposure time: 1 minute.\nThe peptides were synthesized on N-modified CAPE-membranes (Bhargava et al, Mol. Recognit, 2002, 15: 145) and prepared by a MultiPep SPOT-robot (INTAVIS Bioanalytical Instruments AG, Cologne, Germany). Array design was performed with the aid of the in-house software LISA 1.71. The synthesis started with spot definition using a standard protocol [Frank, Tetrahedron, 1992, 48: 9217), followed by the coupling of a solution of Fmoc-cysteine-(Trt)-Opfp (0.3M) in N-methylpyrolidone (NMP) and Fmoc-alanine-Opfp (double coupling, 15 min reaction each). After Fmoc cleavage with piperidine in DMF (20%), 4-hydroxymethylphenoxyacetic acid (HMPA) dissolved in dimethylformamide (DMF, 0.6M solution) and activated with EEDQ (1.1 equiv) was added, and samples were directly spotted on the membrane (4× coupling, 15 min reaction each). The membrane was acetylated with acetic anhydride in DMF (2%), washed with DMF (5×3 min), ethanol (2×3 min), and diethyl ether (2×3 min), and finally air dried. Solutions of Fmoc-amino acid-OH (0.4M) activated with 1,1′-carbonyldiimidazole (CDI, 3 equiv) in DMF were spotted on the membrane (4× coupling, 15 min reaction time each). Proline, tyrosine, and glutamine were activated with 1,1′-carbonyldi(1,2,4-triazole) (CDT). The Fmoc group was removed from the spots, and the peptide sequences were completed using the standard SPOT synthesis protocol (Frank, Tetrahedron, 1992, 48: 9217) followed by a N-terminal tag with β-alanine.\nThe primary sequence of the DAXX protein (SEQ ID NO: 1) was dissected in overlapping 15 mer peptides (3 amino acids shift) and all the peptides (243 peptides) were synthesized on cellulose membrane by SPOT synthesis as described above. The peptide library was incubated with the His-tagged intra-cellular region of the Fas receptor (Sigma). […]",
  "note": "No end group written: not given here.",
  "data": [
    {"substance": "KKSRKEKKQTGSGPLG-NH2 [DAXXp, KKSRKEKKQTGSGPLG-NH2]", "values": [
      {"measurement": "interaction with the Fas receptor / signal intensity of the spot", "result": "interact with the Fas receptor"}
    ]}
  ]
}
